Measurements from US20210085640A1, “ACYLATED CATECHIN POLYPHENOLS AND METHODS OF THEIR USE FOR THE TREATMENT OF CANCER” (Flagship Pioneering Innovations V, Inc., priority 2018, published 2021).
pIC50: −log10 of the molar value.

Key:
Assay type in all cases: cell-based
T24 bladder cancer cells = test: Cancer cell survival (CellTiter-Glo), T24; settings: 72 h
Protocol: (§1) The cells were prepared as follows. Cells were harvested during logarithmic growth, counted, and adjusted to 4.44×10^4 cells/mL with culture media. 90 μL of suspended cells were added to wells of 96-well plates for a final cell count of 4×10^3 cells/well. The plates were incubated overnight at 37 C with 5% CO2 overnight.
(§2) The test compounds were assayed as follows. Compound solutions were mixed at 10× final concentrations in cell media: 1 μM-10 mM (fatty acids) or 100 nM-1 mM (all other compounds). […] of solution was added to each well of cells in triplicate for each concentration. Well plates were incubated for 72 h at 37 C with 5% CO2 and then assayed with CellTiter-Glo by adding 50 μL of CTG solution to each well. Cells were lysed by shaking on an orbital shaker for 5 min. Plates were incubated at room temperature for 20 min and then each well's luminescence was measured. The surviving percentage of cells was determined as:
(§3) Survival %=(LumTest article−LumMedium control)/(LumNone treated−LumMedium control)[…]
Efficacy was assessed at nine concentration levels for each compound and the 50% inhibition concentration (IC50) determined for each compound.

[1] = test system: Daudi lymphoma cancer cells; test: Cancer cell survival (CellTiter-Glo), Daudi; settings: 72 h
Protocol: as §1, §2, §3
Activity was assessed at nine concentration levels for each compound and the 50% inhibition concentration (IC50) determined for each compound.

MCF7 breast cancer cells = test: Cancer cell survival (CellTiter-Glo), MCF7; settings: 72 h
Protocol: as §1, §2, §3
(§4) Cytotoxicity was assessed at nine concentration levels for each compound and the 50% inhibition concentration (IC50) determined for each compound.

[2] = test system: HCT 116 colorectal cancer cells; test: Cancer cell survival (CellTiter-Glo), HCT 116; settings: HCT 116 cells, 72 h
Protocol: as §1, §2, §3, §4

A549 lung cancer cells = test: Cancer cell survival (CellTiter-Glo), A549; settings: 72 h
Protocol: as §1, §2, §3, §4

[3] = test system: PC-3 prostate cancer cells; test: Cancer cell survival (CellTiter-Glo), PC-3; settings: PC-3 cells, 72 h
Protocol: as §1, §2, §3, §4

A-431 skin cancer cells = test: Cancer cell survival (CellTiter-Glo), A-431; design: Cell survival at given concentration: unit not given here; settings: A-431 cells, 72 h
Protocol: as §1, §2, §3, §4

AGS stomach cancer cells = test: Cancer cell survival (CellTiter-Glo), AGS; design: Cell survival at given concentration: unit not given here
Protocol: as §1, §2, §3, §4

Compound: O=c1oc2cc(O)ccc2c2cc(O)c(O)cc12 [urolithin C]
- Cell survival at given concentration (T24 bladder cancer cells; 101 nM): 1.00
- Cell survival at given concentration (T24 bladder cancer cells; 318 nM): 0.94
- Cell survival at given concentration (T24 bladder cancer cells; 1 μM): 0.96
- Cell survival at given concentration (T24 bladder cancer cells; 3 μM): 0.96
- Cell survival at given concentration (T24 bladder cancer cells; 10 μM): 0.93
- Cell survival at given concentration (T24 bladder cancer cells; 32 μM): 0.37
- Cell survival at given concentration (T24 bladder cancer cells; 100 μM): 0.12
- Cell survival at given concentration (T24 bladder cancer cells; 316 μM): 0.08
- Cell survival at given concentration (T24 bladder cancer cells; 1000 μM): 0.07
- pIC50 (T24 bladder cancer cells; Table 3.1, read-out: 1050): 4.58
- Cell survival at given concentration ([1]; 101 nM): 0.99
- Cell survival at given concentration ([1]; 318 nM): 0.99
- Cell survival at given concentration ([1]; 1 μM): 1.00
- Cell survival at given concentration ([1]; 3 μM): 1.00
- Cell survival at given concentration ([1]; 10 μM): 0.89
- Cell survival at given concentration ([1]; 32 μM): 0.36
- Cell survival at given concentration ([1]; 100 μM): 0.18
- Cell survival at given concentration ([1]; 316 μM): 0.16
- Cell survival at given concentration ([1]; 1000 μM): 0.07
- pIC50 ([1]; Table 4.1): 4.62
- Cell survival at given concentration (MCF7 breast cancer cells; 101 nM): 0.97
- Cell survival at given concentration (MCF7 breast cancer cells; 318 nM): 0.99
- Cell survival at given concentration (MCF7 breast cancer cells; 1 μM): 0.97
- Cell survival at given concentration (MCF7 breast cancer cells; 3 μM): 1.02
- Cell survival at given concentration (MCF7 breast cancer cells; 10 μM): 1.07
- Cell survival at given concentration (MCF7 breast cancer cells; 32 μM): 0.76
- Cell survival at given concentration (MCF7 breast cancer cells; 100 μM): 0.22
- Cell survival at given concentration (MCF7 breast cancer cells; 316 μM): 0.21
- Cell survival at given concentration (MCF7 breast cancer cells; 1000 μM): 0.20
- pIC50 (MCF7 breast cancer cells; Table 5.1): 4.46
- Cell survival at given concentration ([2]; 101 nM): 1.00
- Cell survival at given concentration ([2]; 318 nM): 0.99
- Cell survival at given concentration ([2]; 1 μM): 1.00
- Cell survival at given concentration ([2]; 3 μM): 0.99
- Cell survival at given concentration ([2]; 10 μM): 0.94
- Cell survival at given concentration ([2]; 32 μM): 0.34
- Cell survival at given concentration ([2]; 100 μM): 0.02
- Cell survival at given concentration ([2]; 316 μM): 0.01
- Cell survival at given concentration ([2]; 1000 μM): 0.01
- pIC50 ([2]; Table 6.1): 4.59
- Cell survival at given concentration (A549 lung cancer cells; 101 nM): 0.99
- Cell survival at given concentration (A549 lung cancer cells; 318 nM): 0.99
- Cell survival at given concentration (A549 lung cancer cells; 1 μM): 1.02
- Cell survival at given concentration (A549 lung cancer cells; 3 μM): 1.04
- Cell survival at given concentration (A549 lung cancer cells; 10 μM): 1.04
- Cell survival at given concentration (A549 lung cancer cells; 32 μM): 1.02
- Cell survival at given concentration (A549 lung cancer cells; 100 μM): 0.36
- Cell survival at given concentration (A549 lung cancer cells; 316 μM): 0.16
- Cell survival at given concentration (A549 lung cancer cells; 1000 μM): 0.12
- pIC50 (A549 lung cancer cells; Table 7.1): 4.03
- Cell survival at given concentration ([3]; 101 nM): 1.03
- Cell survival at given concentration ([3]; 318 nM): 1.00
- Cell survival at given concentration ([3]; 1 μM): 1.04
- Cell survival at given concentration ([3]; 3 μM): 1.01
- Cell survival at given concentration ([3]; 10 μM): 1.07
- Cell survival at given concentration ([3]; 32 μM): 0.93
- Cell survival at given concentration ([3]; 100 μM): 0.08
- Cell survival at given concentration ([3]; 316 μM): 0.04
- Cell survival at given concentration ([3]; 1000 μM): 0.03
- pIC50 ([3]; Table 8.1): 4.28
- Cell survival at given concentration (A-431 skin cancer cells; 101 nM): 1.02
- Cell survival at given concentration (A-431 skin cancer cells; 318 nM): 1.02
- Cell survival at given concentration (A-431 skin cancer cells; 1 μM): 1.02
- Cell survival at given concentration (A-431 skin cancer cells; 3 μM): 1.03
- Cell survival at given concentration (A-431 skin cancer cells; 10 μM): 1.02
- Cell survival at given concentration (A-431 skin cancer cells; 32 μM): 0.95
- Cell survival at given concentration (A-431 skin cancer cells; 100 μM): 0.34
- Cell survival at given concentration (A-431 skin cancer cells; 316 μM): 0.20
- Cell survival at given concentration (A-431 skin cancer cells; 1000 μM): 0.06
- pIC50 (A-431 skin cancer cells; Table 9.1): 4.12
- Cell survival at given concentration (AGS stomach cancer cells; 101 nM): 0.98
- Cell survival at given concentration (AGS stomach cancer cells; 318 nM): 0.99
- Cell survival at given concentration (AGS stomach cancer cells; 1 μM, Table 10.1): 0.98
- Cell survival at given concentration (AGS stomach cancer cells; 3 μM, Table 10.1): 0.99
- Cell survival at given concentration (AGS stomach cancer cells; 10 μM, Table 10.1): 1.02
- Cell survival at given concentration (AGS stomach cancer cells; 32 μM, Table 10.1): 0.86
- Cell survival at given concentration (AGS stomach cancer cells; 100 μM, Table 10.1): 0.15
- Cell survival at given concentration (AGS stomach cancer cells; 316 μM): 0.04
- Cell survival at given concentration (AGS stomach cancer cells; 1000 μM): 0.02
- pIC50 (AGS stomach cancer cells; Table 10.1): 4.25
